The text below walks through data of patent publication US20230365571A1, “COMPOUNDS AND COMPOSITIONS AS Sppl2a INHIBITORS” (Novartis AG, priority 2020, published 2023).

Format in all cases: cell-based
One assay deals with T1, Sppl2a CD74 (Mus musculus, UniProt Q9JJF9).
T1 construct: Mouse whole blood Balb/c mice (sodium citrate) was ordered by Bioreclamation LLC; tissue Bioreclamation LLC
T1 sequence (Q9JJF9 26-523): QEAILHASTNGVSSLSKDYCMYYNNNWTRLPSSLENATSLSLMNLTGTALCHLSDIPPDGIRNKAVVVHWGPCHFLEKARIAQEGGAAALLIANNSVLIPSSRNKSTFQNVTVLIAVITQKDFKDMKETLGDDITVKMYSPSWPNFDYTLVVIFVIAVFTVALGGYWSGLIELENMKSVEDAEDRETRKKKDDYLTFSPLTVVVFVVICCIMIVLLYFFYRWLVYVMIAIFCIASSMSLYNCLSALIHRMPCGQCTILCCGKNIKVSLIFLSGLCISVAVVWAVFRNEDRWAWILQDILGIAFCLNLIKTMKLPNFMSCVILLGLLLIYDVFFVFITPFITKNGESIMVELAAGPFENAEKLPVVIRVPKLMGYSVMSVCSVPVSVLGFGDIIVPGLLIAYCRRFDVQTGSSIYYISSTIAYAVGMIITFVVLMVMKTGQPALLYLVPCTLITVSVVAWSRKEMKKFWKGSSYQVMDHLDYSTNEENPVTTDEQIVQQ
As to the kind of experiment: CD74/p8 mouse whole blood assay, flow cytometry format. The note with it: Balb/c mouse whole blood, 5 h, CD74 signal on gated live B cells. As for the experimental part: CD74/p8 Mouse Whole Blood Assay: Flow Cytometry Format
Mouse whole blood Balb/c mice (sodium citrate) was ordered by Bioreclamation LLC; USA. The blood was used the next day upon receipt (stored at 4° C.). 100 μL blood were transferred in 96 well format plate, where compounds, an 11 point dilutions down from 30 μM, to be tested were previously deposited. The plate was incubated for 5 h in the incubator at 37° C., 5% CO2 under continuous motion. After the incubation the blood was diluted with RBC Lysis Buffer (Amined; Cat. Nr 3-13F00-H or BD; Cat. Nr 555899). The solution was mixed by pipetting and incubated 10 min in the 37° C. incubator. The white blood cells were sedimented for 3 min at 2000 rpm. After removing the supernatant the cell pellet was resuspended and washed twice in RCB Buffer and kept≈ 5 min at room temperature, followed by a centrifugation for 2 min at 2000 rpm. The cell pellet was then resuspend in D-PBS and centrifuged twice. Finally, the cells were taken up in of D-PBS/0.5% inactivated fetal bovine serum/2 mM EDTA. The cell suspension was treated with Live/Dead fixable stain (Life Technologies, >470 nm version), B cells were identified by surface staining with an anti-B220 antibody coupled to APC fluorofor. After staining, the cells were extensively washed with PBS. The cells were permeabilized and fixed in FACS lysing buffer; (BD; #349202, dil 1:10 in water) and labelled with an anti CD74, FITC labelled antibody, washed once more with diluted FACS lysing buffer and spin down. The cell pellet was washed with D-PBS/0.5% inactivated fetal bovine serum/2 mM EDTA and PBS prior to the analysis in a flow cytometer. The compound concentrations were plotted against the intensity (medium fluorescence intensity) of the CD74 signal on the gated life B cell and IC50 were determined by fitting data for a 11 concentrations dose response.
Background: Flow cytometry measures light scatter and fluorescence of single cells or particles in a stream.

For assay [1], the target named is T2, human SPPL2a (Homo sapiens, UniProt Q8TCT8).
T2 sequence (Q8TCT8 26-520): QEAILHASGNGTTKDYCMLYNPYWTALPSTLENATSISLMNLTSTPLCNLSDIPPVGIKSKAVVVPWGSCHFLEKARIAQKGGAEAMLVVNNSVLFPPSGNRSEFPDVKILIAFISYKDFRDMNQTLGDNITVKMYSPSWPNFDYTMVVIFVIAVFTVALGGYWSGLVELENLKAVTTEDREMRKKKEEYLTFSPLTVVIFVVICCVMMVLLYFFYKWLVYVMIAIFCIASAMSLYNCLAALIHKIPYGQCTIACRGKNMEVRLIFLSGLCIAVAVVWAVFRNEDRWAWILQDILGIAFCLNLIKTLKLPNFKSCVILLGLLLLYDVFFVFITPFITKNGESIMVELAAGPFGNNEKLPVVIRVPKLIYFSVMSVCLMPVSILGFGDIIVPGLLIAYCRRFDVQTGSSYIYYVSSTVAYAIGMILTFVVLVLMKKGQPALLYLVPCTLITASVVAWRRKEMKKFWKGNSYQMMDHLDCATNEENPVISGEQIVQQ
Put plainly: Sppl2a TL (translocation) imaging assay in U-2 OS cells. Also on record: expressed in transfected cells. The note with it: U-2 OS cells expressing human SPPL2a and EGFP-TNFα(aa1-76) NTF substrate; 24 h. The essentials:
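U-2 OS cells stably expressing human SPPL2a plus doxycycline-induced EGFP-TNFα(aa1-76) NTF, treated 24 h at 37 °C with inhibitor (100 μM–1 nM, 11 points, 0.9% DMSO, 5 μg/mL doxycycline). Imaging of nuclear-minus-cytoplasmic EGFP intensity; % inhibition versus 0.5 μM LY-411,575 and DMSO, IC50 by nonlinear regression; CC50 from cell count.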

The target of assay [2] is T2, human SPPL2a. Put plainly: Sppl2a RGA (reporter gene assay) in HEK293 cells. Particulars: NT-TNF-VP16-Gal4 substrate, Gal4-luciferase reporter, 24 h. Also on record: expressed in transfected cells; host or cells: HEK293 (transient). The essentials:
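HEK293 cells transiently co-transfected with human SPPL2a, NT-TNF-VP16-Gal4 substrate and Gal4-luciferase reporter, compound added within 5 h. After 24 h at 37 °C, luciferase luminescence measured; IC50 from concentration versus normalized luminescence.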
Background: Reporter assays use an easily measured gene product as a stand-in for the process of interest.

Take `CC[C@H](CNC(=O)c1sc(C(=O)NCC(F)F)nc1C)C(=O)N[C@@H]1C(=O)N2CCCN2Cc2ccccc21` [Example 8, N^2-(2,2-Difluoroethyl)-4-methyl-N^5-((R)-2-(((S)-11-oxo-2,3,10,11-tetrahydro-1H,5H-benzo[d]pyrazolo [1,2-a][1,2]diazepin-10-yl)carbamoyl)butyl) thiazole-2,5-dicarboxamide]: the results for the IC50 at Sppl2a CD74, against human SPPL2a [1] and against human SPPL2a [2] were 2430 nM, 3 nM and 4 nM, respectively.
As for `CNC(=O)c1nc(C)c(C(=O)NC[C@H](C(=O)N[C@@H]2C(=O)N3CCCN3Cc3ccccc32)C2CC2)s1` [Example 9, N^5-((R)-2-Cyclopropyl-3-oxo-3-(((S)-11-oxo-2,3,10,11-tetrahydro-1H,5H-benzo[d]pyrazolo [1,2-a][1,2]diazepin-10-yl)amino)propyl)-N^2,4-dimethylthiazole-2,5-dicarboxamide], the IC50 – broadly, the concentration that inhibits the measured activity by half – against Sppl2a CD74 worked out at 157 nM; at human SPPL2a [1] it was 3 nM; on human SPPL2a [2], 4 nM.
Regarding `CCNC(=O)c1nc(C)c(C(=O)NC[C@@H](CC)C(=O)N[C@@H]2C(=O)N3CCCN3Cc3ccccc32)s1` [Example 10, N^2-Ethyl-4-methyl-N^5-((R)-2-(((S)-11-oxo-2,3,10,11-tetrahydro-1H,5H-benzo[d]pyrazolo [1,2-a][1,2]diazepin-10-yl)carbamoyl)butyl) thiazole-2,5-dicarboxamide], the IC50 against Sppl2a CD74 amounted to 289 nM; against human SPPL2a [1] it was 4 nM; at human SPPL2a [2], 5 nM.
On to `CNC(=O)c1nc(C)c(C(=O)NC[C@H](C(=O)N[C@@H]2C(=O)N3CCCN3Cc3ccccc32)C(F)(F)F)s1` [Example 11, N^2,4-Dimethyl-N^5-((R)-3,3,3-trifluoro-2-(((S)-11-oxo-2,3,10,11-tetrahydro-1H,5H-benzo[d]pyrazolo [1,2-a][1,2]diazepin-10-yl)carbamoyl)pro-pyl)thiazole-2,5-dicarboxamide], for which the IC50 on Sppl2a CD74 was 95 nM; on human SPPL2a [1] it was 4 nM; against human SPPL2a [2] it was 3 nM.
For `CCNC(=O)c1nc(C)c(C(=O)NC[C@H](C(=O)N[C@@H]2C(=O)N3CCCN3Cc3ccccc32)C2CC2)s1` [Example 12, N^5-((R)-2-Cyclopropyl-3-oxo-3-(((S)-11-oxo-2,3,10,11-tetrahydro-1H,5H-benzo[d]pyrazolo [1,2-a][1,2]diazepin-10-yl)amino)propyl)-N^2-ethyl-4-methylthiazole-2,5-dicarboxamide], the results for the IC50 on Sppl2a CD74, against human SPPL2a [1] and against human SPPL2a [2] were 280 nM, 5 nM and 4 nM, respectively.
On to `CC[C@H](CNC(=O)c1sc(C(=O)NC)nc1C)C(=O)N[C@@H]1C(=O)N2CCCN2Cc2ccccc21` [Example 13, N^2,4-Dimethyl-N^5-((R)-2-(((S)-11-oxo-2,3,10,11-tetrahydro-1H,5H-benzo[d]pyrazolo [1,2-a][1,2]diazepin-10-yl)carbamoyl)butyl) thiazole-2,5-dicarboxamide], for which the results for the IC50 against Sppl2a CD74, on human SPPL2a [1] and on human SPPL2a [2] were 161 nM, 6 nM and 8 nM, respectively.
Consider `Cc1nc(C(=O)NC(C)C)sc1C(=O)NC[C@H](C(=O)N[C@@H]1C(=O)N2CCCN2Cc2ccccc21)C(F)(F)F` [Example 14, N^2-Isopropyl-4-methyl-N^5-((R)-3,3,3-trifluoro-2-(((S)-11-oxo-2,3,10,11-tetrahydro-1H,5H-benzo[d]pyrazolo [1,2-a][1,2]diazepin-10-yl)carbamoyl)pro-pyl)thiazole-2,5-dicarboxamide], for which the half-maximal inhibitory concentration (IC50) amounted to 269 nM against Sppl2a CD74, 7 nM on human SPPL2a [1] and 3 nM on human SPPL2a [2].
With `CCNC(=O)c1nc(C)c(C(=O)NC[C@@H](C)C(=O)N[C@@H]2C(=O)N3CCCN3Cc3ccccc32)s1` [Example 16, N^2-Ethyl-4-methyl-N^5-((R)-2-methyl-3-oxo-3-(((S)-11-oxo-2,3,10,11-tetrahydro-1H,5H-benzo[d]pyrazolo [1,2-a][1,2]diazepin-10-yl)amino)propyl) thiazole-2,5-dicarboxamide], the concentration for half-maximal inhibition (IC50) on Sppl2a CD74 was 659 nM; against human SPPL2a [1], 11 nM; against human SPPL2a [2], 8 nM.
The matching figures for `CC[C@H](CNC(=O)c1c(C)noc1C(F)(F)F)C(=O)N[C@@H]1C(=O)N2CCCN2Cc2ccccc21` [Example 17, 3-Methyl-N-((R)-2-(((5)-11-oxo-2,3,10,11-tetrahydro-1H,5H-benzo[d]pyrazolo [1,2-a][1,2]diazepin-10-yl)carbamoyl)butyl)-5-(trifluoromethyl) isoxazole-4-carboxamide]: 2350 nM, 11 nM and 5 nM.
In the case of `CC[C@H](CNC(=O)c1sc(C(=O)NC(C)C)nc1C)C(=O)N[C@@H]1C(=O)N2CCCN2Cc2ccccc21` [Example 19, N^2-Isopropyl-4-methyl-N^5-((R)-2-(((S)-11-oxo-2,3,10,11-tetrahydro-1H,5H-benzo[d]pyrazolo [1,2-a][1,2]diazepin-10-yl)carbamoyl)butyl) thiazole-2,5-dicarboxamide], the IC50 amounted to 819 nM against Sppl2a CD74, 12 nM against human SPPL2a [1] and 6 nM against human SPPL2a [2].
With `Cc1nc(C(=O)NCC(F)F)sc1C(=O)NC[C@@H](C)C(=O)N[C@@H]1C(=O)N2CCCN2Cc2ccccc21` [Example 21, N^2-(2,2-Difluoroethyl)-4-methyl-N^5-((R)-2-methyl-3-oxo-3-(((S)-11-oxo-2,3,10,11-tetrahydro-1H,5H-benzo[d]pyrazolo [1,2-a][1,2]diazepin-10-yl)amino)propyl) thiazole-2,5-dicarboxamide], the 50% inhibitory concentration (IC50) amounted to 5940 nM against Sppl2a CD74, 13 nM at human SPPL2a [1] and 7 nM against human SPPL2a [2].
For the compound `CC(C)NC(=O)c1nc(Cl)c(C(=O)NC[C@@H](C)C(=O)N[C@@H]2C(=O)N3CCCN3Cc3ccccc32)s1` [Example 22, 4-Chloro-N^2-isopropyl-N^5-((R)-2-methyl-3-oxo-3-(((S)-11-oxo-2,3,10,11-tetrahydro-1H,5H-benzo[d]pyrazolo [1,2-a][1,2]diazepin-10-yl)amino)propyl) thiazole-2,5-dicarboxamide], the 50% inhibitory concentration (IC50) on Sppl2a CD74 was 3000 nM; on human SPPL2a [1], 14 nM; against human SPPL2a [2], 12 nM.
For `Cc1cc(-c2nc(C)c(C(=O)NC[C@@H](C)C(=O)N[C@@H]3C(=O)N4CCCN4Cc4ccccc43)s2)on1` [Example 23, 4-Methyl-N-((R)-2-methyl-3-oxo-3-(((S)-11-oxo-2,3,10,11-tetrahydro-1H,5H-benzo[d]pyrazolo [1,2-a][1,2]diazepin-10-yl)amino)propyl)-2-(3-methylisoxazol-5-yl)thiazole-5-carboxamide] the same measures were 992 nM, 16 nM and 21 nM.
